Our source for the IC50 and viability, T/C values is PubChem BioAssay AID1963847 (Molecular Pharmacology Branch, DTP, NCI, 2024).

This experiment has as its system 415267-285-R-J2-PDC complex spheroid viability. In words: Anticancer human tumor 415267-285-R-J2-PDC patient-derived breast carcinoma cell line growth inhibition [POLQ]. Particulars: for viability, T/C: stronger effect = lower value. The gist of the method:
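Complex spheroid viability model combining PDC tumour cells with endothelial (HUVEC) and MSC stromal cells. Novobiocin, ART-558 or RP6685 were tested singly and in combination with standard and investigational anticancer drugs. Each was titrated in half-log steps from near clinical Cmax, or from 10 microM where Cmax was unknown.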

[1] abbreviates: curve of first compound, second compound 0.0316 µM.
[2] abbreviates: curve of first compound, second compound 0.1 µM.
Setting [3] is: curve of first compound, second compound 0.316 µM.
Setting [4] is: curve of first compound, second compound 1 µM.
[5] abbreviates: curve of first compound, second compound 3.16 µM.
Setting [6] is: curve of first compound, second compound 10 µM.
[7] abbreviates: second compound 0.0316 µM, first compound 0.0316 µM.
Where [8] appears, read: second compound 0.0316 µM, first compound 0.1 µM.
Setting [9] is: second compound 0.0316 µM, first compound 0.316 µM.
[10] abbreviates: second compound 0.0316 µM, first compound 1 µM.
The mark [11] stands for this setting: second compound 0.0316 µM, first compound 3.16 µM.
The mark [12] stands for this setting: second compound 0.0316 µM, first compound 10 µM.
Where [13] appears, read: second compound 0.1 µM, first compound 0.0316 µM.
[14] abbreviates: second compound 0.1 µM, first compound 0.1 µM.
Where [15] appears, read: second compound 0.1 µM, first compound 0.316 µM.
Where [16] appears, read: second compound 0.1 µM, first compound 1 µM.
Setting [17] is: second compound 0.1 µM, first compound 3.16 µM.
Where [18] appears, read: second compound 0.1 µM, first compound 10 µM.
Where [19] appears, read: second compound 0.316 µM, first compound 0.0316 µM.
The mark [20] stands for this setting: second compound 0.316 µM, first compound 0.1 µM.
Where [21] appears, read: second compound 0.316 µM, first compound 0.316 µM.
[22] abbreviates: second compound 0.316 µM, first compound 1 µM.
Setting [23] is: second compound 0.316 µM, first compound 3.16 µM.
Setting [24] is: second compound 0.316 µM, first compound 10 µM.
[25] abbreviates: second compound 1 µM, first compound 0.0316 µM.
Where [26] appears, read: second compound 1 µM, first compound 0.1 µM.
Where [27] appears, read: second compound 1 µM, first compound 0.316 µM.
Setting [28] is: second compound 1 µM, first compound 1 µM.
[29] abbreviates: second compound 1 µM, first compound 3.16 µM.
Where [30] appears, read: second compound 1 µM, first compound 10 µM.
Setting [31] is: second compound 3.16 µM, first compound 0.0316 µM.
Setting [32] is: second compound 3.16 µM, first compound 0.1 µM.
Setting [33] is: second compound 3.16 µM, first compound 0.316 µM.
[34] abbreviates: second compound 3.16 µM, first compound 1 µM.
The mark [35] stands for this setting: second compound 3.16 µM, first compound 3.16 µM.
The mark [36] stands for this setting: second compound 3.16 µM, first compound 10 µM.
[37] abbreviates: second compound 10 µM, first compound 0.0316 µM.
Setting [38] is: second compound 10 µM, first compound 0.1 µM.
The mark [39] stands for this setting: second compound 10 µM, first compound 0.316 µM.
[40] abbreviates: second compound 10 µM, first compound 1 µM.
Where [41] appears, read: second compound 10 µM, first compound 3.16 µM.
[42] abbreviates: second compound 10 µM, first compound 10 µM.

Several values for one entry are separate records, joined by “and”; a condition that tells them apart may be missing. Equal entries are not always repeated.
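Note: spheroids exposed to compounds for one week before readout.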
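Throughout, for viability, T/C: luminescence used as stand-in measure of viable cells; 100% = DMSO vehicle control viability.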

The IC50 is the concentration that gives 50% inhibition. Broadly, the viability, T/C is the ratio of treated to control. For the compound `CCCS(=O)(=O)Nc1ccc(F)c(C(=O)c2c[nH]c3ncc(-c4ccc(Cl)cc4)cc23)c1F` + COC1C(OC(N)=O)C(O)C(Oc2ccc3c(O)c(NC(=O)c4ccc(O)c(CC=C(C)C)c4)c(=O)oc3c2C)OC1(C)C, the IC50 was over 10000 nM under setting [1]; over 10000 nM under setting [2]; over 10000 nM under setting [3]; over 10000 nM under setting [4]; over 10000 nM under setting [5]; over 10000 nM under setting [6]. The viability, T/C under setting [7] was 123%; the viability, T/C under setting [8] is 102%; the viability, T/C under setting [9] is 94.5%; the viability, T/C under setting [10] was 89%; the viability, T/C under setting [11] was 110%; the viability, T/C under setting [12] was 66.4%. The viability, T/C under setting [13] was 103%; the viability, T/C under setting [14] was 100%; the viability, T/C under setting [15] is 97.3%; the viability, T/C under setting [16] was 101%; the viability, T/C under setting [17] is 111%; the viability, T/C under setting [18] was 66.5%. The viability, T/C under setting [19] is 101%; the viability, T/C under setting [20] is 105%; the viability, T/C under setting [21] was 99%; the viability, T/C under setting [22] was 104%; the viability, T/C under setting [23] was 92.4%; the viability, T/C under setting [24] was 70.9%. The viability, T/C reads like this: under setting [25], 103%; under setting [26], 106%; under setting [27], 94%; under setting [28], 94.8%; under setting [29], 92.6%; under setting [30], 64.7%. Further, the viability, T/C runs as follows: under setting [31], 109%; under setting [32], 96.6%; under setting [33], 90.2%; under setting [34], 95.2%; under setting [35], 101%; under setting [36], 60.5%. Also, the viability, T/C was 116% under setting [37]; 106% under setting [38]; 97.8% under setting [39]; 91.4% under setting [40]; 93.2% under setting [41]; 88.4% under setting [42].

Consider `C=CC(=O)N1CCN(c2nc(=O)n(-c3c(C)ccnc3C(C)C)c3nc(-c4c(O)cccc4F)c(F)cc23)C(C)C1` (configuration not stated), for which the viability, T/C is 88.5% and 95.7% and 91.3% (compound 0.0316 µM); 105% and 106% and 98.2% (compound 0.1 µM); 97.6% and 105% and 93.3% (compound 0.316 µM); 91% and 116% and 101% (compound 1 µM); 98.9% and 108% and 113% (compound 3.16 µM); 103% and 107% and 96.3% (compound 10 µM). In addition, the IC50 (curve of compound) is over 10000 nM.

In the case of `CCc1cc2c(N3CCc4c(cc(Cn5ccnc5)cc4-c4cn(C)nc4C(F)(F)F)C3=O)ccnc2c(OC)n1`, the viability, T/C was 82.8% and 92.9% and 84.3% (compound 0.0316 µM); 82.9% and 92.8% and 96.7% (compound 0.1 µM); 85.8% and 89.2% and 90.2% (compound 0.316 µM); 83.7% and 94.3% and 90% (compound 1 µM); 82.2% and 82.6% and 86.5% (compound 3.16 µM); 75.7% and 84.4% and 75.4% (compound 10 µM). Also, where the note is “curve of compound”, the IC50 was over 10000 nM.

Consider `Cn1ncnc1[C@H]1c2n[nH]c(=O)c3cc(F)cc(c23)N[C@@H]1c1ccc(F)cc1`, for which the viability, T/C reads like this: (compound 0.000316 µM) 88.1% and 97.7% and 104%; (compound 0.001 µM) 98.2% and 104% and 91.7%; (compound 0.00316 µM) 90.7% and 92.5% and 103%; (compound 0.01 µM) 101% and 98.7% and 94.5%; (compound 0.0316 µM) 108% and 89.2% and 99%; (compound 0.1 µM) 93.3% and 102% and 100%. Moreover, where the note is “curve of compound”, the IC50 was over 100 nM.

Turning to `CC1COCCN1c1cc(-c2ccnn2C)c2ccnc(-c3ccn[nH]3)c2n1` (configuration not stated) + Nc1ccc(C#CCN(C(=O)Cc2ncc(C(F)(F)F)cc2C(F)(F)F)c2ccc(F)cc2)nn1, the IC50 runs as follows: under setting [1], 42.7 nM; under setting [2], 40.2 nM; under setting [3], 40 nM; under setting [4], 36.9 nM; under setting [5], 32.6 nM; under setting [6], under 31.6 nM. Also, the viability, T/C under setting [7] is 63.7%; the viability, T/C under setting [8] was 11.2%; the viability, T/C under setting [9] is 5.02%; the viability, T/C under setting [10] is 3.87%; the viability, T/C under setting [11] is 4.17%; the viability, T/C under setting [12] was 3.9%. Moreover, the viability, T/C under setting [13] was 60.3%; the viability, T/C under setting [14] is 10.8%; the viability, T/C under setting [15] is 4.23%; the viability, T/C under setting [16] was 3.18%; the viability, T/C under setting [17] was 4.26%; the viability, T/C under setting [18] is 3.58%. The viability, T/C was 60% under setting [19]; 11.4% under setting [20]; 4.5% under setting [21]; 3.99% under setting [22]; 3.82% under setting [23]; 4% under setting [24]. The viability, T/C was 56.4% under setting [25]; 8.91% under setting [26]; 4.69% under setting [27]; 3.73% under setting [28]; 3.7% under setting [29]; 3.28% under setting [30]. In addition, the viability, T/C under setting [31] is 51.2%; the viability, T/C under setting [32] is 9.4%; the viability, T/C under setting [33] was 5.57%; the viability, T/C under setting [34] was 3.36%; the viability, T/C under setting [35] was 3.4%; the viability, T/C under setting [36] was 4.22%. The viability, T/C is 42.1% under setting [37]; 10.7% under setting [38]; 5.92% under setting [39]; 3.97% under setting [40]; 3.84% under setting [41]; 4.9% under setting [42].

As to `Nc1ccc(C#CCN(C(=O)Cc2ncc(C(F)(F)F)cc2C(F)(F)F)c2ccc(F)cc2)nn1`, the viability, T/C was 93.6% [middle of 13 runs] (compound 0.0316 µM); 101% [middle of 13 runs] (compound 0.1 µM); 101% [middle of 12 runs] (compound 0.316 µM); 103% [middle of 13 runs] (compound 1 µM); 107% [middle of 13 runs] (compound 3.16 µM); 106% [middle of 13 runs] (compound 10 µM). Moreover, the half-inhibitory concentration (IC50) (compound alone, run of 01/19/2024) is over 10000 nM.
